Here are results for 21 molecules from patent US20220332720A1, “BICYCLIC AGONISTS OF STIMULATOR OF INTERFERON GENES STING” (The Scripps Research Institute, priority 2019, published 2022).

Where only a bound is given, the exact number is not on record here.

In the assay the test system is THP-1 Lucia ISG cells. The experiment in a line: ISG-LUC activation assay (ISRE-luciferase assay). In kind it is cell-based. The following applies: Homo sapiens, THP1-Lucia ISG; THP-1 Lucia ISG reporter cells, 24 hours; score based upon potency and efficacy relative to reference compound; read-out: ISG-LUC activation assay score. The text has this: We have established a robust platform for identifying non-nucleotide small molecule STING agonists. his has been established using a primary assay involving a human THP-1 cell line carrying an IRF-inducible reporter with 5 copies of the IFN signaling response element. Counter screens, involving alternative reporter constructs, rodent cell-based assays, as well as cGAS and STING knock-out cell lines, are used to eliminate luciferase artifacts and ensure human-rodent cross species reactivity, as well as pathway selectivity. Biochemical assays, involving cGAS enzymatic activity and STING protein binding assays, are used to identify the specific target of identified hits.
Tissue culture. Wild-type (cat. no. thpl-isg) and STING KO (cat. no. thpd-kostg) THP-1-Lucia ISG cells were purchased from Invivogen and maintained in growth media consisting of RPMI 1640, 2mM L-glutamine, […], 10% heat-inactivated fetal bovine serum (FBS), 1,000 units/ml penicillin, 1,000 μg/ml streptomycin, 0.25 μg/ml Amphotericin B, and 100 μg/ml zeocin unless otherwise stated.
ISRE-luciferase assay. THP-1 Lucia ISG cells were resuspended in low-serum growth media (2% FBS) at a density of 5×10^5 cells/ml and treated with test article or vehicle (DMSO). 50 μL of cells were seeded into each well of a 384-well white greiner plates and incubated for 24 hours. To evaluate expression of the luciferase reporter, 30 μl of Quanti-luc (Invivogen) detection reagent was added to each well and luminescence was read using an Envision plate reader (Perkin Elmer) set with an integration time of 0.1 seconds.
Take `COC(=O)c1cc(F)c(F)cc1NC(=O)c1ccn2c(C#N)cnc2n1` [Compound 75]: the EC50 was over 1000 nM.
For `C#Cc1cc(NC(=O)c2cc(N)n3ccnc3n2)c(C(=O)O)cc1F` [Compound 32] the value was over 1000 nM; for `C#Cc1cc(NC(=O)c2cc(N)c3nnnn3n2)c(C(=O)O)cc1C#N` [Compound 36], under 3000 nM.
For `Cc1cc(NC(=O)c2cc(N)c3nnnn3n2)c(C(=O)O)cc1F` [Compound 43] the value was over 1000 nM.
To `C#Cc1cc(NC(=O)c2ccc3c(C(N)=O)nnn3n2)c(C(=O)O)cc1F` [Compound 12] belongs under 3000 nM.
Consider `C#Cc1cc(NC(=O)c2cc(N)c3[nH]c(C4CC4)nc3n2)c(C(=O)OC)cc1F` [Compound 27], for which the EC50 is over 20000 nM.
For the molecule `COC(=O)c1cc(Cl)c(Cl)cc1NC(=O)c1nc2n(n1)CCC(=O)N2` [Compound 91], the EC50 is over 1000 nM.
On to `COC(=O)c1cc(F)c(F)cc1NC(=O)c1ccc2nnnn2n1` [Compound 71], for which the EC50 was over 1000 nM.
To `C#Cc1cc(NC(=O)c2ccn3c(-c4cn[nH]c4)cnc3n2)c(C(=O)O)cc1F` [Compound 4, 2-(3-(1H-pyrazol-4-yl)imidazo[1,2-a]pyrimidine-7-carboxamido)-4-ethynyl-5-fluorobenzoic acid] belongs over 20000 nM; to `COC(=O)c1cc(Cl)c(Cl)cc1NC(=O)c1nc2nc(O)ccn2n1` [Compound 77], over 1000 nM; to `C#Cc1cc(NC(=O)c2cc(N)n3ncnc3n2)c(C(=O)O)cc1F` [Compound 18], over 1000 nM.
`C/C=C/c1cc(NC(=O)c2cc(N)c3nnnn3n2)c(C(=O)OC)cc1F` [Compound 35]: the EC50 is under 900 nM.
`C#Cc1cc(NC(=O)c2ccn3c(-c4ccncc4)nnc3n2)c(C(=O)O)cc1F` [Compound 59]: the EC50 is over 20000 nM.
For `COc1cc(NC(=O)c2cc(N)c3nnnn3n2)c(C(=O)O)cc1F` [Compound 73] the value was over 1000 nM; for `Nc1cc(C(=O)Nc2cc(Cl)c(Cl)cc2C(=O)O)nn2nncc12` [Compound 17], over 1000 nM.
For `C#Cc1cc(NC(=O)c2cc(N)c3nnnn3n2)c(C(=O)O[C@@H]2CSSC[C@H]2O)cc1F` [Compound 60] the value was over 1000 nM; for `C#Cc1cc(NC(=O)c2cc(N)c3nnnn3n2)c(C(=O)O)nc1Cl` [Compound 11], over 1000 nM; for `CC#Cc1cc(NC(=O)c2cc(N)c3nnnn3n2)c(C(=O)OC)cc1F` [Compound 39], over 1000 nM.
To `C=Cc1cc(NC(=O)c2cc(N)c3nnnn3n2)c(C(=O)O)cc1F` [Compound 5] belongs over 1000 nM; to `N#Cc1cc(NC(=O)c2cc(N)c3nnnn3n2)c(C(=O)O)cc1F` [Compound 41], over 1000 nM; to `C=C(F)c1ccc(C(=O)O)c(NC(=O)c2cc(N)c3nnnn3n2)c1` [Compound 66], under 900 nM.
